Test results reported in US20220062299A1, “USE OF GLUCOCORTICOID STEROIDS IN PREVENTING AND TREATING CONDITIONS OF MUSCLE WASTING, AGING AND METABOLIC DISORDER” (NORTHWESTERN UNIVERSITY, priority 2018, published 2022).

Columns and labels:
[1] = tested on: isolated dystrophic myofibers; test: 2-NBDG uptake assay in live myofibers; type: in vivo, mouse; details: mdx mice; weekly prednisone
Experimental: 2-NBDG uptake assay and glycemia/lactate monitoring. 2-NBDG uptake assay in live myofibers was conducted adapting previously reported conditions (Zou et al., 2005). FDB muscles were collected and carefully treated with collagenase type II and hand pipetting to liberate single myofibers, following reported procedures (Demonbreun and McNally, 2015). Myofibers from two FDB muscles were collected in 1 ml Ringer's solution (for 1 l, 7.2 g NaCl, 0.17 g CaCl2, 0.37 g KCl; pH, 7.4). 200 μl of myofiber suspension were dispensed per well of chambered coverglass (#155382; Thermo Fisher, Waltham, Mass.) and imaged as baseline condition for both transmitted light (1 ms integration) and green fluorescent channels (100 ms integration) at the Zeiss Axio Observer A1 microscope, using 20× short-range objective and the ZEN 2 software (version 2011; Zeiss, Jena, Germany). […] 2-NBDG uptake was quantitated as relative fluorescent units, calculated as intra-myofiber fluorescence after incubation subtracted of average baseline fluorescence. Fluorescence intensity was quantitated through serial analysis of acquired images (3 areas of approximately 85 μm^2 were analyzed for average fluorescence value per myofiber; >10 myofibers were analyzed per mouse) with ImageJ software (Schneider et al., 2012). […]

[2] = tested on: mdx muscles; test: Muscle metabolomics of mdx quadriceps; type: in vivo, mouse; details: 4 wk exposure
Experimental: Muscle metabolomics. Total hydrophilic metabolite content was extracted from quadriceps muscle tissue at treatment endpoint through methanol-water (80:20) extraction, adapting conditions described previously (Bruno et al., 2018). Briefly, total metabolite content from quadriceps muscle was obtained from approximately 100 mg (wet weight) quadriceps muscle tissue per animal. Frozen (−80° C.) muscle was pulverized in liquid nitrogen and homogenized with approximately 250 μl 2.3 mm zirconia/silica beads (Cat #11079125z, BioSpec, Bartlesville, Okla.) in 1 ml methanol/water 80:20 (vol/vol) by means of Mini-BeadBeater-16 (Cat #607, Biospec, Bartlesville, Okla.) for 1 minute. After centrifuging at 5000 rpm for 5 minutes, 200 μl of supernatant were transferred into a tube pre-added with 800 μL of ice-cold methanol/water 80% (vol/vol). Samples were vortexed for 1 minute, and then centrifuged at approximately 20,160×g for 15 minutes at 4° C. Metabolite-containing extraction solution was then dried using SpeedVac (medium power). 200 ul of 50% Acetonitrile were added to the tube for reconstitution following by overtaxing for 1 minute. Samples solution were then centrifuged for 15 minutes at 20,000 g, 4° C. Supernatant was collected for LC-MS analysis for Hydrophilic Metabolites Profiling as follows. Samples were analyzed by High-Performance Liquid Chromatography and High-Resolution Mass Spectrometry and Tandem Mass Spectrometry (HPLC-MS/MS). Specifically, system consisted of a Thermo Q-Exactive in line with an electrospray source and an Ultimate3000 (Thermo) series HPLC consisting of a binary pump, degasser, and auto-sampler outfitted with a Xbridge Amide column (Waters; dimensions of 4.6 mm×100 mm and a 3.5 μm particle size). The mobile phase A contained 95% (vol/vol) water, 5% (vol/vol) acetonitrile, 20 mM ammonium hydroxide, 20 mM ammonium acetate, pH=9.0; B was 100% Acetonitrile. […] The capillary of the ESI source was set to 275° C., with sheath gas at 45 arbitrary units, auxiliary gas at 5 arbitrary units and the spray voltage at 4.0 kV. In positive/negative polarity switching mode, an m/z scan range from 70 to 850 was chosen and MS1 data was collected at a resolution of 70,000. The automatic gain control (AGC) target was set at 1×10^6 and the maximum injection time was 200 ms. The top 5 precursor ions were subsequently fragmented, in a data-dependent manner, using the higher energy collisional dissociation (HCD) cell set to 30% normalized collision energy in MS2 at a resolution power of 17,500. The sample volumes of 25 μl were injected. Data acquisition and analysis were carried out by Xcalibur 4.0 software and Tracefinder 2.1 software, respectively (both from Thermo Fisher Scientific). Metabolite levels were analyzed as peak area normalized to wet tissue weight and total […] content. Gene-metabolite pathway enrichment was conducted using the MetaboAnalyst platform (v4.0; Joint Pathway Analysis mode) (Chong et al., 2018). Pulsatile glucocorticoid exposure enhanced mitochondrial respiration in dystrophic muscle through BCAA. […] This correlated with increased catabolism of BCAAs, seen as reduced levels of precursors and intermediates and increased levels of oxoglutarate and succinate in the TCA cycle (FIG. 1B, center). […] Opposing shifts were confirmed by HPLC analyses of muscle ATP and NAD^+and by resting blood lactate (FIGS. 5A and 5B), and these changes correlated with parallel shifts in muscle glycogen content (FIG. 5C).

For `C[C@]12C=CC(=O)C=C1CC[C@@H]1[C@@H]2C(=O)C[C@@]2(C)[C@H]1CC[C@]2(O)C(=O)CO` [prednisone, Prednisone], the “myogenic glucose uptake (2-NBDG in isolated myofibers)” value [1] was “enhanced”, the “BCAA and glucose catabolism” value ([2]; daily prednisone) was “substantial impairment” and the “NAD+ and NADH in muscle” value ([2]; daily prednisone) was “loss”. For the same compound, the “Glycolysis (levels of pyruvate and lactate)” value ([2]; weekly prednisone) was “increased”, the “catabolism of BCAAs” value ([2]; weekly prednisone) was “increased” and the “ATP, phosphocreatine, and NAD+ in muscle” value ([2]; weekly prednisone, vs vehicle) was “increased”.
